# Measurements taken from ChEMBL document CHEMBL1201862, “PubChem BioAssay data set” (2004).
# The source made the active and inactive calls.
# How the values were obtained:
# cells [1] = type: functional, cell-based
# [2] = HeLa 4N DNA content increase, dose response, cell-based, IC50 (AID 1117351); type: functional
# [3] = luciferase reporter signal reduction – luminescence, H4-C neuroglioblastoma cells, dose response (AID 2458); type: functional, cell-based;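 also: H4 neuroglioblastoma cells stably carrying a luciferase reporter gene fusion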
# [4] = HeLa 2N DNA content increase, dose response, cell-based, IC50 (AID 1117349); type: functional
# [5] = Luminescence Cell-Based Dose Response HTS to Identify Inhibitors of 5'UTR Stem-Loop Driven Prion Protein mRNA Translation in H4 Neuroglioblastoma Cells. [Related pubchem assays: 1827 (Project Summary), 1813 (Primary HTS)]; type: functional
# [6] = inhibitors of SNCA 5'UTR-driven reporter translation, confirmation, H4 neuroglioma cells, luminescence (AID 1988); type: functional, cell-based
# cells [7] = type: functional, cell-based; remark: listed apart in the source
# [8] = inhibitors of SNCA 5'UTR-driven translation, confirmation, luminescence, H4 neuroglioblastoma cells, dose confirmation (AID 2454); type: functional, cell-based;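 also: H4 neuroglioblastoma cells carrying an alpha-synuclein 5'UTR luciferase reporter; potency for inhibition of the luciferase signal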
# Cysteine protease ATG4B = Cysteine protease ATG4B (Homo sapiens, UniProt Q9Y4P1); type: functional;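 also: Fluorescence-based dose-response confirmation assay measuring inhibition of ATG4B activity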
# Chain of Cysteine protease ATG4B (Q9Y4P1 whole entry): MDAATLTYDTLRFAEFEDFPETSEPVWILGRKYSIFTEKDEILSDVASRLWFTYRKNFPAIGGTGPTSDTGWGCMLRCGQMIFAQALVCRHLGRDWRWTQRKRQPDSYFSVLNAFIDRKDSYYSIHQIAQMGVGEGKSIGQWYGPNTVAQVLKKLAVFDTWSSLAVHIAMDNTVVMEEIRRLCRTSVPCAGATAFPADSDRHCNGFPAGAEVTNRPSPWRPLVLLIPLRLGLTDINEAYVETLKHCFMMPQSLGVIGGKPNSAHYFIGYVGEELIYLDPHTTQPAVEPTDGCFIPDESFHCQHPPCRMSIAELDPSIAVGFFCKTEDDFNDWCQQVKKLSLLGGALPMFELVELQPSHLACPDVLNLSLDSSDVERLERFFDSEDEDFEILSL
# Phospholipase A2 = Phospholipase A2 (Homo sapiens, UniProt P04054); type: functional;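 also: confirmatory dose-response counterscreen on phospholipase A2, testing hits that came from an ultra-high-throughput screen for ATG4B inhibitors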
# Chain of Phospholipase A2 (P04054 whole entry): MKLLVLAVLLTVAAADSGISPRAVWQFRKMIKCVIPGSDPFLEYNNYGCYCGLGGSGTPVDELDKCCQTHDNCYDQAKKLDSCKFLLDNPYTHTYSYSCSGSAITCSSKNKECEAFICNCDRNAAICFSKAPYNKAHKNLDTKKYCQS
# [9] = A cytotoxicity screen of small molecule inhibitors of the PhoP region in Salmonella typhi identified in the primary screen. [Related pubchem assays: 1850, 1864, 1985 ]; type: functional
# Streptococcus [10] = experiment: Group A Streptococcus viability loss, dose response, counter-screen for streptokinase expression inhibitor project, luminescence, BacTiterGlo (AID 1915); type: functional, organism-based;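 also: potency for reduction of bacterial viability or growth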
# Streptokinase A = biological target: T1, Streptokinase A (Streptococcus pyogenes serotype M1, UniProt P10520); experiment: S. pyogenes streptokinase expression inhibitors, potency, dose response, plasminogen activation absorbance, OD405 (AID 1914); type: functional, Streptococcus pyogenes M1 GAS;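 also: secreted streptokinase activity via plasminogen activation per viability signal from cell pellet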
# T1 sequence (P10520 whole entry): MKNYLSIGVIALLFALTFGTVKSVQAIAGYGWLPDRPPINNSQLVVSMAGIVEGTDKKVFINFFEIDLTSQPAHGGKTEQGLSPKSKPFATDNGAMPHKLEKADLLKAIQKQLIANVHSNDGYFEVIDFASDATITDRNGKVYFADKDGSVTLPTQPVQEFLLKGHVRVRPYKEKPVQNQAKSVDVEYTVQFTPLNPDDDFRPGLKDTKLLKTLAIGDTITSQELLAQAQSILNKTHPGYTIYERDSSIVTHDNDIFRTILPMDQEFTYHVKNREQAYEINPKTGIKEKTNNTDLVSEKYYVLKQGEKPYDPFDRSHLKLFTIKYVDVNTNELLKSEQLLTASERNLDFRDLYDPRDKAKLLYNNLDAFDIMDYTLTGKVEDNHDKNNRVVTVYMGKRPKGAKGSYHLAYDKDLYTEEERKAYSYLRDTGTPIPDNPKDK
# Streptococcus [11] = experiment: Luminescence Microorganism-Based Dose Response Follow up to Identify Compounds Cytotoxic to Streptococcus. [Related pubchem assays: 1677 (Project Summary), 1915, 1914, 1902 (Retest at Dose), 1900 (Counter Screen), 1662 (Primary HTS)]; type: functional, organism-based
# [12] = system: Streptococcus sp. 'group A'; experiment: growth inhibition of control SK(-) GAS strain, dose response, counter-screen for streptokinase expression inhibitor project, luminescence, kanamycin, BacTiterGlo, confirmation (AID 1900); type: functional, organism-based
# [13] = biological target: Mothers against decapentaplegic homolog 3 (Homo sapiens, UniProt P84022); experiment: Smad3 binding inhibitors, lysate ELISA, dose response, cell lysate, secondary confirmation, chemiluminescent ELISA, HEK293 lysate (AID 1058); type: functional
# Chain of Mothers against decapentaplegic homolog 3 (P84022 whole entry): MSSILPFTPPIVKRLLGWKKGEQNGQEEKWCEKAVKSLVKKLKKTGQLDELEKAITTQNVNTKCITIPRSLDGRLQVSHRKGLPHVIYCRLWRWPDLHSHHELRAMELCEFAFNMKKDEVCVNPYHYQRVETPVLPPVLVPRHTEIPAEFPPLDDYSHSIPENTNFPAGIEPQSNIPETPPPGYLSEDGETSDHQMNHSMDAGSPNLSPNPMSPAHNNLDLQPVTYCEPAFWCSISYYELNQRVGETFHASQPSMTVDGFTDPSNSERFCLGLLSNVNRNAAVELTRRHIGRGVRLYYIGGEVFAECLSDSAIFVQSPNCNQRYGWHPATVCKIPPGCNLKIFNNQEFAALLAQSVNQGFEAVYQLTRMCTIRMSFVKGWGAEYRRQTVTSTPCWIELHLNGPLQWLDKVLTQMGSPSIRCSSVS
# [14] = biological target: Sphingosine 1-phosphate receptor 1 (Homo sapiens, UniProt P21453); type: functional;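 also: Tango beta-arrestin reporter U2OS cells stimulated with S1P near its EC80; inhibitor potency meaning antagonism of receptor activation by the natural agonist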
# Chain of Sphingosine 1-phosphate receptor 1 (P21453 whole entry): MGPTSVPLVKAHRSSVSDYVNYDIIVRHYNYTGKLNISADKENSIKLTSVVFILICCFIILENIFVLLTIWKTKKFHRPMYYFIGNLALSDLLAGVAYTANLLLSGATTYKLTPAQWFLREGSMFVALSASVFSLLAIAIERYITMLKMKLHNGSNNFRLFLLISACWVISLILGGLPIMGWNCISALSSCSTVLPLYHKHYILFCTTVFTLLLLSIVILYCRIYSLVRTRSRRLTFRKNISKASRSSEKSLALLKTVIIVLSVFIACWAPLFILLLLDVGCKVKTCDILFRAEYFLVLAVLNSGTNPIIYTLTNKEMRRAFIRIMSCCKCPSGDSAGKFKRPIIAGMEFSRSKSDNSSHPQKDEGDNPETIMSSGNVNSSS
# HT-1080 = experiment: cytotoxicity in HT1080 fibrosarcoma cells, cell-based, fluorescence readout (AID 620); type: functional; settings: Homo sapiens
# [15] = HepG2 cell cytotoxicity, dose response, cytotoxicity control for Shn3 inhibitor project, CellTiter-Glo, cherry-picked (AID 624134); type: functional, cell-based
# [16] = biological target: T2, High affinity choline transporter 1 (Homo sapiens, UniProt Q9GZV3); experiment: CHT inhibitors, dose response, cell-based, 5-point CRC, membrane potential dye (AID 504840); type: functional
# T2 sequence (Q9GZV3 whole entry): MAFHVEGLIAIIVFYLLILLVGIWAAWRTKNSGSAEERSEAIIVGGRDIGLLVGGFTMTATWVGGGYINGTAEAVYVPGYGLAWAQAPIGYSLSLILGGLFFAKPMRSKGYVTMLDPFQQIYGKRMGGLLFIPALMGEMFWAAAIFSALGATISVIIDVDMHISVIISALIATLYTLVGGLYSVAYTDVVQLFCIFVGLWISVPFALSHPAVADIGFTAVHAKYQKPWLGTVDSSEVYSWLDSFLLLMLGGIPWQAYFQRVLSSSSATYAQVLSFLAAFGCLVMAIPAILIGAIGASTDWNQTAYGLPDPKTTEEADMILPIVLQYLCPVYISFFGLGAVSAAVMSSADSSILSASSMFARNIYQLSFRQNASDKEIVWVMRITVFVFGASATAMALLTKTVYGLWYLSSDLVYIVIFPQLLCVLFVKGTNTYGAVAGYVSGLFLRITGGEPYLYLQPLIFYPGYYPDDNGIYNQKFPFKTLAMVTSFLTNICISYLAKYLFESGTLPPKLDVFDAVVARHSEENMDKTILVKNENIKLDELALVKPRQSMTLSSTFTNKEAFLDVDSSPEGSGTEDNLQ
# [17] = Shn3 3'UTR reporter inhibitors, dose response, cell-based, Clone20 osteoblasts, firefly luciferase, cherry-picked (AID 624132); type: functional;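 also: firefly luciferase luminescence from reporter carrying the Shn3 3'UTR in osteoblasts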
# Protein RecA = biological target: T3, Protein RecA (Mycobacterium tuberculosis, UniProt P9WHJ3); experiment: Fluorescence Cell-Free Homogeneous Dose Retest to Identify Inhibitors of RecA-Intein Splicing Activity. [Related pubchem assays (depositor defined):AID2097, AID2223, AID489010, AID492950]; type: functional
# T3 sequence (P9WHJ3 whole entry): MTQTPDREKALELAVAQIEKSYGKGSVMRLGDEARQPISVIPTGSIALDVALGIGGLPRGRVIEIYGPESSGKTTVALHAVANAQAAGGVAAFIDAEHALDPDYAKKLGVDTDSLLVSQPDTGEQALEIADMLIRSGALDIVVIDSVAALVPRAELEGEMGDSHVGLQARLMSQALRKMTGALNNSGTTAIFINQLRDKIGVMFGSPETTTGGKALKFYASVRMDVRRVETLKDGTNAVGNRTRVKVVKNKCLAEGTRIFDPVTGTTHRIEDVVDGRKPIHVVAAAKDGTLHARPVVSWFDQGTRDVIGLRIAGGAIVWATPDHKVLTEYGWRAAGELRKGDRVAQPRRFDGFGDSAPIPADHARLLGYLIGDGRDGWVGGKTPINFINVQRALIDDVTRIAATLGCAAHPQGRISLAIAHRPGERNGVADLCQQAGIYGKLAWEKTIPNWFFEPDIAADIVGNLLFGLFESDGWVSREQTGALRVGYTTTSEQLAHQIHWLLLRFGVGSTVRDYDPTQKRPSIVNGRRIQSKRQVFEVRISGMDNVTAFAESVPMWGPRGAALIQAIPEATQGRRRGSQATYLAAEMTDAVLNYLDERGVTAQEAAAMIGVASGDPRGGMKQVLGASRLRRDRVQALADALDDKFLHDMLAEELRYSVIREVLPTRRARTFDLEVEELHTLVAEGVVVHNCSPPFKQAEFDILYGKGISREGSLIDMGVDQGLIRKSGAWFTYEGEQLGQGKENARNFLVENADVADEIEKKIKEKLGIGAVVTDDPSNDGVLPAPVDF
# [18] = biological target: Luciferin 4-monooxygenase (Photinus pyralis, UniProt P08659); experiment: Counter Screen for Luciferase-based Assay Positives. [Related pubchem assays: 620, 618, 411 ]
# Chain of Luciferin 4-monooxygenase (P08659 whole entry): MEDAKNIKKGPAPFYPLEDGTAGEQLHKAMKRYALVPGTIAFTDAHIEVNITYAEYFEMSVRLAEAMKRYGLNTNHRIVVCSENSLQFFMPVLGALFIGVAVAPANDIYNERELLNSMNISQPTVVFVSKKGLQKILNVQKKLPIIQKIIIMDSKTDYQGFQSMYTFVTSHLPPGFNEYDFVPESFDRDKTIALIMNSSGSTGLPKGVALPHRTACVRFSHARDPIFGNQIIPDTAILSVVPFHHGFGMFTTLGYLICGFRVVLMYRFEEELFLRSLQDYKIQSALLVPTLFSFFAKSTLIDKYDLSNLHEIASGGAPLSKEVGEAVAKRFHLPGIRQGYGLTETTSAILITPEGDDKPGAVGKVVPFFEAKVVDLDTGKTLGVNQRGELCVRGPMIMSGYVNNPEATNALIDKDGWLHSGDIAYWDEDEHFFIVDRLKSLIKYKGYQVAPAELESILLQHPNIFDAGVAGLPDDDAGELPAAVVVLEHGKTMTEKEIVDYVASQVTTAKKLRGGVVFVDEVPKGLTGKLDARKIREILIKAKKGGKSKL
# [19] = biological target: T4, Heat shock factor protein 1 (Mus musculus, UniProt P38532); experiment: inhibition of MG132-induced HSE-luciferase signal, confirmation, cell-based, NIH3T3, luminescence, dose retest (AID 2382); type: functional;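 also: NIH3T3 fibroblasts with HSF1-driven luciferase reporter stressed by proteasome inhibitor MG132; luminescence from HSF1-driven luciferase expression after 8 hours of MG132 stress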
# T4 sequence (P38532 whole entry): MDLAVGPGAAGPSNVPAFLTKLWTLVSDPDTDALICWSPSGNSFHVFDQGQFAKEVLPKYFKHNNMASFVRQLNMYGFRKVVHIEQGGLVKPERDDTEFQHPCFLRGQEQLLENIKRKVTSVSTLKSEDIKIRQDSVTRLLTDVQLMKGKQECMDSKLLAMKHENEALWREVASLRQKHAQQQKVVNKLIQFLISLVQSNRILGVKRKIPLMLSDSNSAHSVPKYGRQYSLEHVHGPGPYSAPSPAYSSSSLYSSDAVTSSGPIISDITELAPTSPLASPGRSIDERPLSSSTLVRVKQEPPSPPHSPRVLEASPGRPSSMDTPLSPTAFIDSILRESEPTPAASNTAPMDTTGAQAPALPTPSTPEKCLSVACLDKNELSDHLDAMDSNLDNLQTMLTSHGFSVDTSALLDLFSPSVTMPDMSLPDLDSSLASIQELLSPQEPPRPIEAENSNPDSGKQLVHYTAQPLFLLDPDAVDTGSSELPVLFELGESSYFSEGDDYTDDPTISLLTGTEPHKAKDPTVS
# [20] = microbe, parasite or virus in culture; type: functional; settings: Mycobacterium tuberculosis
# [21] = biological target: Sphingosine 1-phosphate receptor 4 (Homo sapiens, UniProt O95977); experiment: Fluorescence dose response cell-based high throughput screening assay for antagonists of the Sphingosine 1-Phosphate Receptor 4 (S1P4). [Related pubchem assays: 1524 (Confirmation in triplicates.), 1510 (Primary screen.)]; type: functional
# Chain of Sphingosine 1-phosphate receptor 4 (O95977 whole entry): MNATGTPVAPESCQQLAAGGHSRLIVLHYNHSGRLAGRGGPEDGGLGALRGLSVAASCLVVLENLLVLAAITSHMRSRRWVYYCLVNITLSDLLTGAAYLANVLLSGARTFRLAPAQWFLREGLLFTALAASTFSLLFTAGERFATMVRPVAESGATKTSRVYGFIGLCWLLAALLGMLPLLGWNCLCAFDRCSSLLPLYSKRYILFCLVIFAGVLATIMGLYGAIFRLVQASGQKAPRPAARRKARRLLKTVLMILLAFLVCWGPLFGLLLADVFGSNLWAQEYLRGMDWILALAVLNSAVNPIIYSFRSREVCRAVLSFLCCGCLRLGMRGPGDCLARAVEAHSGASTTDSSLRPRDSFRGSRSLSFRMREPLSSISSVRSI
# [22] = control 3'UTR Renilla luciferase suppression, dose response, counter-screen for Shn3 inhibitor project, cell-based, Clone20-Shn3RL, cherry-picked (AID 624133); type: functional
# [23] = biological target: T2, High affinity choline transporter 1; experiment: CHT inhibitors, dose response, cell-based, 10-point CRC, membrane potential dye (AID 588401); type: functional;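 also: membrane potential dye fluorescence of choline-evoked depolarization via CHT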
# CHO = experiment: cytotoxicity in TLR9-MyD88 CHO cells, dose response, cytotoxicity control for TLR9-MyD88 binding inhibitor project, cell-based, luminescence (AID 588339); type: functional, hamster; settings: Cricetulus griseus;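 also: CHO cells stably coexpressing TLR9 and MyD88 fusions from primary screen; compound exposure lasted 48 hours before viability readout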
# [24] = inhibitors of firefly luciferase expression or activity, dose response, H4 neuroglioma cells, luminescence (AID 1990); type: functional, cell-based
# Estrogen receptor = biological target: T5, Estrogen receptor (Homo sapiens, UniProt P03372); experiment: ERα–SRC-3 coactivator interaction inhibitors, confirmation, orthogonal assay, biochemical, ELISA, streptavidin-HRP readout (AID 1079)
# T5 sequence (P03372 whole entry): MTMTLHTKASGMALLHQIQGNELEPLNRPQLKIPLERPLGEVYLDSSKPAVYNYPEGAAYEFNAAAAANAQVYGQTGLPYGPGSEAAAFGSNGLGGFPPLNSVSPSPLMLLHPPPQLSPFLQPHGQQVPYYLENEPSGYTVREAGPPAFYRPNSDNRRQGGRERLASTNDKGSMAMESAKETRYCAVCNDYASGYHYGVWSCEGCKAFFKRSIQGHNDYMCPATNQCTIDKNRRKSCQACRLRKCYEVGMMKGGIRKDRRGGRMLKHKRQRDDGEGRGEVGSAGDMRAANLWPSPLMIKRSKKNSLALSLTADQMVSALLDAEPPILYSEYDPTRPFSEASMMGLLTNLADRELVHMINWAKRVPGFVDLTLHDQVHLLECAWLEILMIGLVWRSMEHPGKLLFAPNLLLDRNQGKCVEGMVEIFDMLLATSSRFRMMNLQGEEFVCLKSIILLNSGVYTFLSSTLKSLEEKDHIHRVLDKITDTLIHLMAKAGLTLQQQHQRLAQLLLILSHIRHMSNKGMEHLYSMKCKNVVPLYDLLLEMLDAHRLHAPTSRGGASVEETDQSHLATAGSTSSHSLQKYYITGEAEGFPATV
# Wee1-like protein kinase = Wee1-like protein kinase (Homo sapiens, UniProt P30291); experiment: Dose Response Cell-based Assay for Inhibitors of Wee1 Degradation. [Related pubchem assays: 1410, 1321 ]; type: functional
# Chain of Wee1-like protein kinase (P30291 whole entry): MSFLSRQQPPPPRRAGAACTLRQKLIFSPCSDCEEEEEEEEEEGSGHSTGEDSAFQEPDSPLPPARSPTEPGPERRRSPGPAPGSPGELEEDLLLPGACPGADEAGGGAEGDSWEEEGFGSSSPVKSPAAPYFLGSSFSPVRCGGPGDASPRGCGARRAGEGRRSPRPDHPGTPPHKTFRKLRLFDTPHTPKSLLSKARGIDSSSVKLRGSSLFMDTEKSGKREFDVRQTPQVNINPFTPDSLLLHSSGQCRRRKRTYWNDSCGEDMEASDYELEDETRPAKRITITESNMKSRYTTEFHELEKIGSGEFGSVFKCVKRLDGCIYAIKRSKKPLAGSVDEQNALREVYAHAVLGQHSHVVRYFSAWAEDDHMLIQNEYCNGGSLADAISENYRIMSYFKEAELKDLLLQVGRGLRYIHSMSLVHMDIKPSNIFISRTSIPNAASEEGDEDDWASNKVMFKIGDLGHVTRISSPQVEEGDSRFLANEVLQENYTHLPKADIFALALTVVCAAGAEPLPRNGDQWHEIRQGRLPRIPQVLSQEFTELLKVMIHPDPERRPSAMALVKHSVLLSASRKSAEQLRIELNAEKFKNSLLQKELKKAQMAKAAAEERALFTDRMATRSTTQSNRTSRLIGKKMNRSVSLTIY
# [25] = biological target: G2/mitotic-specific cyclin-B1 (Homo sapiens, UniProt P14635); experiment: Counterscreen assay for inhibitors of Wee1 degradation: dose response cell-based assay to identify inhibitors of cyclin B degradation. [Related pubchem assays: 1410, 1321 ]; type: functional
# Chain of G2/mitotic-specific cyclin-B1 (P14635 whole entry): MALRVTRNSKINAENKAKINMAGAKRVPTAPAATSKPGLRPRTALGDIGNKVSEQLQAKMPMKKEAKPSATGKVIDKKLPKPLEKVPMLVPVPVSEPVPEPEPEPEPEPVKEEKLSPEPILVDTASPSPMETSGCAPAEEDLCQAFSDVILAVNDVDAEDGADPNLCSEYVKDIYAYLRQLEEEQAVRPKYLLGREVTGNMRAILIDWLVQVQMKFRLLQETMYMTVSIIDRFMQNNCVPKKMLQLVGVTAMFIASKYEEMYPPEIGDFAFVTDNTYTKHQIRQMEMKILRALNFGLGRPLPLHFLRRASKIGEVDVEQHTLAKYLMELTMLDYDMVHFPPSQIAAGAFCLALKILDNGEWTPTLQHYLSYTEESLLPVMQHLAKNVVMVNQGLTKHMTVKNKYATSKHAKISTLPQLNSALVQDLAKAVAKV
structure (smiles),measurement,setting,value
COC(=O)Nc1nc2cc(C(=O)c3cccs3)ccc2[nH]1 [NOCODAZOLE],IC50,cells [1],> 67.5 µM (inactive)
same,IC50,[2],0.0176 µM (active)
same,EC50,[3],0.195 µM (active)
same,IC50,[4],0.0174 µM (active)
same,EC50,[5],< 0.1 µM (active)
same,EC50,[6],< 0.1 µM (active)
same,EC50,cells [7],0.203 µM (active)
same,EC50,[8],0.183 µM (active)
O=c1c2ccccc2nc(-c2ccoc2)n1CCc1ccccc1,IC50,Cysteine protease ATG4B,14.3 µM (active)
same,IC50,Phospholipase A2,13.9 µM (active)
same,EC50,[9],> 50 µM (active)
Cc1cc(C(=O)OC(C(=O)Nc2cccc(C(F)(F)F)c2)c2ccccc2)c(C)o1 (stereo not given),EC50,Streptococcus [10],> 150 µM (not active)
same,EC50,Streptokinase A,4.11 µM (active)
same,EC50,Streptococcus [11],> 500 µM (not active)
same,EC50,[12],22.6 µM (active)
Oc1ccccc1C(c1cc2c(cc1O)OCO2)N1CCOCC1 (stereo not given),IC50,[13],6.96 µM (not active)
CN1/C(=C/C(=O)c2nc(S(C)(=O)=O)ncc2Cl)C(C)(C)c2ccccc21,IC50,[14],11.9 µM (not active)
same,EC50,HT-1080,17.8 µM (active)
same,AC50,[15],12.2 µM (active)
same,IC50,[16],4.81 µM (active)
same,AC50,[17],5.21 µM (active)
same,EC50,Protein RecA,1.81 µM (active)
same,EC50,[18],1.14 µM (active)
same,EC50,[5],10.1 µM (active)
same,EC50,[6],9.18 µM (active)
same,EC50,[19],4.37 µM (active)
same,CC50,[20],19.5 µM (active)
same,IC50,[21],1.31 µM (active)
same,AC50,[22],8.57 µM (active)
same,IC50,[23],3.81 µM (active)
same,IC50,CHO,2.72 µM (active)
same,EC50,[24],> 120 µM (not active)
O=C(CCCCCn1c(=S)[nH]c2ccccc2c1=O)N1CCC(Nc2ccccc2)CC1,IC50,Estrogen receptor,0.18 µM (not active)
Cn1cccc1/C=C1\SC(Nc2ccccc2)=NC1=O,EC50,Wee1-like protein kinase,> 49.7 µM (not active)
same,EC50,[25],> 5.53 µM (active)
